Reference: ChEMBL document CHEMBL1127217, “Enantioselective acetylation of primary amines by Cylindrocarpon radicicola” (Bioorg Med Chem Lett, 1993)

What was measured:
Ilyonectria destructans [1] = assay: N-Acylation of compound was determined after 22 hr incubation at 250 mg/mL concentration using Cylindrocarpon radicicola resting cells and residual amine was evaluated
Ilyonectria destructans [2] = assay: N-Acylation of amine was determined after 22 hr incubation at 250 mg/mL concentration using Cylindrocarpon radicicola resting cells to amide expressed as enantioselectivity coefficient (amine/amide): 59/41
Ilyonectria destructans [3] = assay: N-Acylation of amine was determined after 22 hr incubation at 250 mg/mL concentration using Cylindrocarpon radicicola resting cells to amide expressed as enantioselectivity coefficient (amine/amide): 48/52
Ilyonectria destructans [4] = assay: N-Acylation of amine was determined after 22 hr incubation at 250 mg/mL concentration using Cylindrocarpon radicicola resting cells to amide expressed as enantioselectivity coefficient (amine/amide): 65/35
Ilyonectria destructans [5] = assay: N-Acylation of amine was determined after 22 hr incubation at 250 mg/mL concentration using Cylindrocarpon radicicola resting cells to amide expressed as enantioselectivity coefficient (amine/amide): 52/48
Ilyonectria destructans [6] = assay: N-Acylation of amine was determined after 22 hr incubation at 250 mg/mL concentration using Cylindrocarpon radicicola resting cells to amide expressed as enantioselectivity coefficient (amine/amide): 53/47

| Compound | Residual amine (ee) (Ilyonectria destructans [1]) | further results |
| --- | --- | --- |
| NC(c1ccccc1)c1ccc(Cl)cc1 (stereo not given) | 0% | Enantioselectivity coefficient (Ilyonectria destructans [2]): 59 |
| NC(Cc1ccccc1)c1ccccc1 (stereo not given) | 80% | Enantioselectivity coefficient (Ilyonectria destructans [3]): 48 |
| CC(CN)c1ccccc1 (stereo not given) | 0% | Enantioselectivity coefficient (Ilyonectria destructans [4]): 65 |
| NC1CCc2ccccc21 (stereo not given) | 0% | Enantioselectivity coefficient (Ilyonectria destructans [5]): 52 |
| CC(N)COc1ccccc1 (stereo not given) | 95% | Enantioselectivity coefficient (Ilyonectria destructans [6]): 53 |
